The results in this text go back to US6372236B1, “Cream composition for skin care” (Doosan Corporation, priority 2000, dated 2002).

The assay has as its system acne. Put plainly: Test on patients suffering from acne. It is filed as in vivo, human.

For the molecule `CCCCCCCCCCCCCC[C@@H](O)[C@@H](O)[C@@H](N)CO` [phytosphingosine], the therapeutic efficacy entry is reported as “good therapeutic efficacy”.
